Measured values as given in patent US20230391752A1, “PYRROLIDINE-3-CARBOXAMIDE DERIVATIVES AND RELATED USES” (Chulalongkorn University, priority 2020, published 2023).

Tests used:
HBV core protein (Cp149) [1] = molecular target: T1, HBV core protein (Cp149) (Hepatitis B virus genotype D subtype ayw, UniProt P03146); test: HBV capsid assembly by electron microscopy (EM); type: biochemical; conditions: 50 μM compound, 15 μM Cp149, negative stain
T1 construct: HBV core C-terminally truncated protein (HBV Cp149); made in house

HBV core protein (Cp149) [2] = molecular target: T1, HBV core protein (Cp149); test: HBV capsid assembly by size exclusion chromatography (SEC); type: biochemical; conditions: 50 μM compound, 15 μM Cp149, 16 hours at 21° C.
HBV genotype D = test: HBV-infected primary human hepatocytes (PHH); type: cell-based, Hepatitis B virus; conditions: for cccDNA establishment in PHH: treatment scheme 1, southern blot
Description: Primary human hepatocytes (PHH) were infected with HBV genotype D produced from HepG2.2.15 cell line on day 1 after plating. Subsequently, the PHH were treated with various concentrations of compounds into 2 different treatment schemes. For treatment scheme 1, the compounds were added into PHH simultaneously with infection media, and incubated for additional 6 days. For treatment scheme 2, the compounds were added into PHH at day 3 after infection, and further incubated for 6 days. After treatment, the cell culture supernatants were collected for the determinations of HBV DNA by qPCR, pgRNA by RT-PCR, HBsAg and HBeAg by ELISA, and cell viability by CCK-8. The cells were harvested for detection of intracellular cccDNA by southern blot.

HBV capsid = molecular target: T2, HBV capsid (Hepatitis B virus genotype D subtype ayw, UniProt P03146); test: Mechanistic study in stably HBV expressed HepG2.2.15 cells (capsid, encapsidated DNA/RNA, core protein blots); type: cell-based; conditions: HepG2.2.15, 6 days; for HBV capsid (formation of DNA- and RNA-devoid capsid): various concentrations; for Intracellular HBV core protein level: western blot
T2 construct: expressed in transfected cells; host or cells: HepG2.2.15
Description: The stably HBV expressed HepG2.2.15 cells were treated with test compounds, at various concentrations in culture medium, at 37° C. for three days. After that the medium was removed and fresh medium containing the compound was added to the cells for another 3 days. After 6 days of treatment, cellular lysates from the treated cells were assessed by non-denatured agarose gel electrophoresis. HBV capsid was detected by western blot with monoclonal anti-HBV core. Encapsidated HBV DNA and RNA were detected by southern blot and northern blot. Intracellular HBV core protein was assessed by western Blot with a monoclonal mouse anti-HBV core. β-actin protein assessed by western blot was used as an internal control.

HBV [3] = test: In vitro anti-HBV activity in HepG2.2.15 cell line (intracellular HBV DNA by qPCR at 1 μM); type: cell-based; conditions: Hepatitis B virus, 144 h; HepG2.2.15 cells, 1 μM compound, 6 days, intracellular HBV DNA as percentage compared to vehicle control (0.5% DMSO)
How it was run: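 HepG2.2.15 cells given compound at 1 μM (0.5% DMSO final) for 3 days, then fresh compound-containing medium for 3 more days. After 6 days intracellular HBV DNA measured by qPCR. Expressed as % of 0.5% DMSO vehicle control and binned into letter ranges.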

HBV [4] = test: Effect on intrahepatic HBV DNA levels in HepG2.2.15 cells (EC50); type: cell-based; conditions: Hepatitis B virus, 144 h, 6 days, intrahepatic HBV DNA by qPCR, read-out: Anti-HBV DNA (EC50)
Description: HepG2.2.15 cells were treated with compounds, at various concentrations in 10% FCS containing medium, at 37° C. for three days. After that the medium was removed and fresh medium containing the compound was added to the cells for another 3 days. After 6 days of treatment, intrahepatic HBV DNA from cell lysates were isolated. Then qPCR reaction of DNA was performed to measure total HBV DNA levels using specific primer set. The fifty-percent effective concentrations (EC50) for HBV DNA inhibition, relative to no drug controls, was determined using nonlinear fitting curve model. EC50 ranges for HBV DNA inhibition were as follows: A>0.3 μM, B=0.05-0.3 μM, C<0.05 μM (Table B).

[5] = Cytotoxicity (MTT) in HepG2.2.15 cells; type: cell-based; conditions: human, 6 days treatment, read-out: HepG2.1.15 cytotoxicity (CC50)
Description: HepG2.2.15 cells were seeded onto 96-well culture plate and allowed to adhere for 24 hours. The cells were treated with various concentrations of the compounds for 6 days. After treatment, the culture media were discarded and further incubated with serum-free media containing […] of 3-(4,5-dimethylthiazol-2-yl)-2,5-diphenyl tetrazolium bromide (MTT) for 2 hour. The resulting formazan crystals were completely dissolved in dimethyl sulfoxide (DMSO), and then measured absorbance at 570 nm using microplate reader. The concentrations of compounds producing 50% cell death (CC50) were determined from a fitting of concentration-response curve (% cell viability versus concentration) to a four-parameter equation.

[6] = Pharmacokinetic study in rats; type: in vivo, male Sprague-Dawley rats; conditions: for F (%) Rat: PO 0.3 to 2.0 mg/kg; for clearance / Vd / half-life: male, Sprague-Dawley, plasma, rat; for clearance / Vd / CL (mL/min/kg) Rat: IV 0.2 to 0.5 mg/kg; for clearance: read-out: CL (mL/min/kg) Rat; for Vd: read-out: Vd,ss (L/kg) Rat; for half-life: read-out: t1/2 (h) Rat (converted)
Description: (§1) Test compounds were administered to male Sprague-Dawley rats and male Beagle dogs by oral (PO) and intravenous (TV) administration. For TV dosing, test compounds were dosed at 0.2 to 0.5 mg/kg using a formulation of 10% dimethyl sulfoxide in 20% hydroxypropyl beta-cyclodextrin solution via IV bolus. For PO dosing, test compounds were dosed at 0.3 to 2.0 mg/kg using a formulation of 40% polyethylene glycol 400 in water via oral gavage. Blood samples were collected at pre-dose and various time points up to 24 hours post-dose, and centrifuged to obtain plasma samples. The plasma concentrations of test compounds were quantified by LC-MS/MS methods. The relevant pharmacokinetic parameters (Table D) were calculated via non-compartmental analysis using WinNonlin (Phoenix™, version 8.3).

[7] = Pharmacokinetic study in dogs; type: in vivo, male Beagle dogs; conditions: for F (%) Dog: PO 0.3 to 2.0 mg/kg; for half-life / clearance / Vd: male, Beagle, dog, plasma; for half-life: read-out: t1/2 (h) Dog (converted); for clearance / Vd: IV 0.2 to 0.5 mg/kg; for clearance: read-out: CL (mL/min/kg) Dog; for Vd: read-out: Vd,ss (L/kg) Dog
Description: as §1

T1 sequence (P03146 1-149): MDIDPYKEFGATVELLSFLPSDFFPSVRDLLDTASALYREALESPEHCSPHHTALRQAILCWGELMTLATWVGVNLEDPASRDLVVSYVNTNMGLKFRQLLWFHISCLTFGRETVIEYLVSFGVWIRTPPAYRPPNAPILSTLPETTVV
T2 sequence (P03146 whole entry): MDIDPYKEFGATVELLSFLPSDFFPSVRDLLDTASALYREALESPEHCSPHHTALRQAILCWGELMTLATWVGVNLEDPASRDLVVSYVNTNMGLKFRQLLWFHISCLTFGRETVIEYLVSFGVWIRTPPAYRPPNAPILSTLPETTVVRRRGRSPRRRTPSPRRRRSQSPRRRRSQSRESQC

Compound: COC(=O)C1=C(C)NC(c2ncc(F)cc2F)=N[C@H]1c1ccc(F)cc1Cl [BAY 41-4109, reference compound]
- Capsid morphology by EM (HBV core protein (Cp149) [1]): the capsids appeared larger and misassembled with an irregular shape
- Formation of capsids (SEC) (HBV core protein (Cp149) [2]): increased the formation of capsids
- Size of induced capsids based on SEC retention times (HBV core protein (Cp149) [2]): larger in size, as compared to NVR 3-778

Compound: C=C1[C@H](CO)[C@@H](O)C[C@@H]1n1cnc2c(=O)[nH]c(N)nc21 [Entecavir, entecavir, reference compound]
- cccDNA establishment in PHH (HBV genotype D): had no effect on cccDNA establishment
- HBV capsid (formation of DNA- and RNA-devoid capsid) (HBV capsid): had no effects
- Intracellular HBV core protein level (HBV capsid): had no effects

Compound: C[C@H]1[C@@H](C(=O)Nc2cc(F)c(F)c(F)c2)CCN1C(=O)c1[nH]c2ccccc2c1Cl [Example 42, (2S,3S)-1-(3-chloro-1H-indole-2-carbonyl)-2-methyl-N-(3,4,5-trifluorophenyl)pyrrolidine-3-carboxamide]
- HBeAg in PHH (HBV genotype D; treatment scheme 1): inhibited
- HBsAg in PHH (HBV genotype D; treatment scheme 1): inhibited
- HBV DNA in PHH (HBV genotype D; treatment scheme 1 (compound added simultaneously with infection media, 6 days)): inhibited
- cccDNA establishment in PHH (HBV genotype D): inhibited
- activity at 1 µM (HBV [3]): < 45%
- Capsid morphology by EM (HBV core protein (Cp149) [1]): resulted in larger but normal shape spheres
- EC50 (HBV [4]): 50 to 300 nM
- CC50 at 6 days [5]: > 25 µM
- HBV capsid (formation of DNA- and RNA-devoid capsid) (HBV capsid): dose-dependently accelerated formation of DNA- and RNA-devoid capsid
- Intracellular HBV core protein level (HBV capsid): had no effect on intracellular HBV core protein level
- Size of induced capsids based on SEC retention times (HBV core protein (Cp149) [2]): capsid retention times between BAY 41-4109 and NVR 3-778

Compound: C[C@H]1[C@@H](C(=O)Nc2ccc(F)c(C#N)c2)CCN1C(=O)c1ccc(C2CC2)[nH]1 [Example 74, (2S,3S)—N-(3-cyano-4-fluorophenyl)-1-(5-cyclopropyl-1H-pyrrole-2-carbonyl)-2-methylpyrrolidine-3-carboxamide]
- activity at 1 µM (HBV [3]): < 45%
- EC50 (HBV [4]): 50 to 300 nM
- F (%) Rat [6]: ~100%
- clearance [6]: 3 mL/min/kg
- Vd [6]: 0.72 L/kg
- half-life [6]: 3.4 h
- CC50 at 6 days [5]: 10 to 25 µM
- Size of induced capsids based on SEC retention times (HBV core protein (Cp149) [2]): induced capsids similar in size to NVR 3-778

Compound: C[C@H]1[C@@H](C(=O)Nc2cc(F)c(F)c(F)c2)CCN1C(=O)c1ccc(-c2ccnnc2)[nH]1 [Example 83, (2S,3S)-2-methyl-1-(5-(pyridazin-4-yl)-1H-pyrrole-2-carbonyl)-N-(3,4,5-trifluorophenyl)pyrrolidine-3-carboxamide]
- activity at 1 µM (HBV [3]): < 45%
- EC50 (HBV [4]): < 50 nM
- F (%) Rat [6]: 82%
- clearance [6]: 0.3 mL/min/kg
- Vd [6]: 0.13 L/kg
- half-life [6]: 5.5 h
- CC50 at 6 days [5]: > 25 µM
- Size of induced capsids based on SEC retention times (HBV core protein (Cp149) [2]): induced capsids similar in size to NVR 3-778

Compound: Cc1ncnc(C)c1-c1ccc(C(=O)N2CC[C@H](C(=O)Nc3cc(F)c(F)c(F)c3)C2)[nH]1 [Example 85, (S)-1-(5-(4,6-dimethylpyrimidin-5-yl)-1H-pyrrole-2-carbonyl)-N-(3,4,5-trifluorophenyl) pyrrolidine-3-carboxamide]
- activity at 1 µM (HBV [3]): < 45%
- F (%) Dog [7]: ~100%
- half-life [7]: 6.2 h
- clearance [7]: 4.4 mL/min/kg
- Vd [7]: 1.64 L/kg
- EC50 (HBV [4]): < 50 nM
- CL (mL/min/kg) Rat [6]: 15.2 mL/min/kg
- Vd [6]: 2.88 L/kg
- half-life [6]: 3.6 h
- CC50 at 6 days [5]: 10 to 25 µM
- Size of induced capsids based on SEC retention times (HBV core protein (Cp149) [2]): induced capsids similar in size to NVR 3-778

Compound: Cc1ncnc(C)c1-c1ccc(C(=O)N2CC[C@H](C(=O)Nc3ccc(F)c(Cl)c3)C2)[nH]1 [Example 99, (S)—N-(3-chloro-4-fluorophenyl)-1-(5-(4,6-dimethylpyrimidin-5-yl)-1H-pyrrole-2-carbonyl) pyrrolidine-3-carboxamide]
- activity at 1 µM (HBV [3]): < 45%
- EC50 (HBV [4]): < 50 nM
- F (%) Rat [6]: 36%
- clearance [6]: 38.4 mL/min/kg
- Vd [6]: 2.34 L/kg
- half-life [6]: 1 h
- CC50 at 6 days [5]: 10 to 25 µM
- Size of induced capsids based on SEC retention times (HBV core protein (Cp149) [2]): induced capsids similar in size to NVR 3-778

Compound: Cc1ncnc(C)c1-c1ccc(C(=O)N2CC[C@H](C(=O)Nc3ccc(F)c(Cl)c3)[C@@H]2C)[nH]1 [Example 104, (2S,3S)—N-(3-chloro-4-fluorophenyl)-1-(5-(4,6-dimethylpyrimidin-5-yl)-1H-pyrrole-2-carbonyl)-2-methylpyrrolidine-3-carboxamide]
- activity at 1 µM (HBV [3]): < 45%
- F (%) Dog [7]: 53%
- half-life [7]: 14.2 h
- clearance [7]: 1.5 mL/min/kg
- Vd [7]: 1.67 L/kg
- Capsid morphology by EM (HBV core protein (Cp149) [1]): showed similar results as for NVR 3-778
- EC50 (HBV [4]): < 50 nM
- CL (mL/min/kg) Rat [6]: 12.3 mL/min/kg
- F (%) Rat [6]: 66%
- Vd [6]: 1.93 L/kg
- half-life [6]: 1.9 h
- CC50 at 6 days [5]: 10 to 25 µM
- HBV capsid (formation of DNA- and RNA-devoid capsid) (HBV capsid): dose-dependently accelerated formation of DNA- and RNA-devoid capsid
- Intracellular HBV core protein level (HBV capsid): had no effect on intracellular HBV core protein level
- Size of induced capsids based on SEC retention times (HBV core protein (Cp149) [2]): induced capsids similar in size to NVR 3-778

Compound: Cc1cc(NC(=O)[C@H]2CCN(C(=O)c3ccc(-c4cccnc4C#N)[nH]3)C2)ccc1F [Example 150, (S)-1-(5-(2-cyanopyridin-3-yl)-1H-pyrrole-2-carbonyl)-N-(4-fluoro-3-methylphenyl)pyrrolidine-3-carboxamide]
- activity at 1 µM (HBV [3]): < 45%
- EC50 (HBV [4]): 50 to 300 nM
- CC50 at 6 days [5]: > 25 µM
- Size of induced capsids based on SEC retention times (HBV core protein (Cp149) [2]): induced capsids similar in size to NVR 3-778
